These results are taken from US20260240862A1, “COMBINATION OF ROGINOLISIB AND BCL-2 INHIBITOR IN THE TREATMENT OF HAEMATOLOGICAL MALIGNANCY” (IONCTURA SA, priority 2023, published 2026).

One assay deals with Granta519 (MCL). Kind of assay: MTT antiproliferation assay, combination of Compound 1 and BCL-2 inhibitor, Chou-Talalay Combination Index. To be noted: BCL-2 inhibitor in combination with Compound 1, 72 hours. The assay is classed as cell-based. On the procedure:
(§1) Venetoclax, S55746, S64315, and S63845, were used at a maximum concentration of 10 μM, following an eight fold dose response based on 1:4 compound dilutions plus an untreated control.
(§2) Cells were incubated for 72 hours at 37° C. and 5% CO2. The antiproliferative effect of single and combination treatments were determined by adding 20 μL MTT [3-(4,5-dimethylthiazolyl-2)-2, 5-diphenyltetrazoliumbromide]reagent (Sigma Aldrich, Buchs, Switzerland) to each well and the plates were incubated at 37° C. for 4 hours, followed by adding 50 μL of sodium dodecyl sulfate (SDS) (250 μM SDS, 0.21% fuming HCl) lysis buffer. The lysed cells were kept overnight, and then the absorbance was read at 570 nm using the Cytation 3 instrument (BioTek, Winoosku, VT, USA). […] The effect of the combinations was defined as strongly synergistic for CI values below <0.3, synergistic for CI values between 0.3 and 0.9, additive for CI values between 0.9 and 1.1, and antagonistic for CI values >1.1.
In general terms: Tetrazolium assays rely on reduction of a dye to a coloured formazan, in cell work by metabolically active cells.

Another assay has as its system JVM2 (MCL). The description is as above. The assay is classed as cell-based. Conditions: BCL-2 inhibitor in combination with Compound 1, 72 hours. As to the method:
as §1, §2

In another assay the test system is MJ (CTCL). Described as above. The format is cell-based. To be noted: BCL-2 inhibitor in combination with Compound 1, 72 hours. As to the method:
as §1, §2

A further assay concerns TMD8 (DLBCL). Described as above. The format is cell-based. To be noted: BCL-2 inhibitor in combination with Compound 1, 72 hours. As to the method: as §1, §2
Another assay concerns MEC1 (CLL). The assay is described as above. The format is cell-based. Conditions: BCL-2 inhibitor in combination with Compound 1, 72 hours. On the procedure:
as §1, §2

A further assay concerns SP49 (MCL). The description is as above. The format is cell-based. Conditions: BCL-2 inhibitor in combination with Compound 1, 72 hours. As to the method: as §1, §2
Another assay relates to DNMT. Conditions: more than that of azacytidine (Zhang 2022); cited from earlier work.

As for `Cc1c(-c2c(-c3ccc(F)o3)sc3ncnc(O[C@H](Cc4ccccc4OCc4ccnn4CC(F)(F)F)C(=O)O)c23)ccc(OCCN2CCN(C)CC2)c1Cl` (atropisomer, axis not shown) [Compound S63845, (R)-2-((5-(3-chloro-2-methyl-4-(2-(4-methylpiperazin-1-yl)ethoxy)phenyl)-6-(5-fluorofuran-2-yl)thieno[2,3-d]pyrimidin-4-yl)oxy)-3-(2-((1-(2,2,2-trifluoroethyl)-1H-pyrazol-5-yl)methoxy)phenyl)propanoic acid], the “CI value (median)” value in the assay on Granta519 (MCL) worked out at 0.47; with JVM2 (MCL), 0.33; in the assay on MJ (CTCL) it was 0.67; with TMD8 (DLBCL), 0.86.
With `COc1ccccc1-c1nccc(COc2ccccc2C[C@@H](Oc2ncnc3sc(-c4ccc(F)cc4)c(-c4ccc(OCCN5CCN(C)CC5)c(Cl)c4C)c23)C(=O)O)n1` (atropisomer, axis not shown) [Compound S64315, (R)-2-((5-(3-chloro-2-methyl-4-(2-(4-methylpiperazin-1-yl)ethoxy)phenyl)-6-(4-fluorophenyl)thieno[2,3-d]pyrimidin-4-yl)oxy)-3-(2-((2-(2-methoxyphenyl)pyrimidin-4-yl)methoxy)phenyl)propanoic acid], the “CI value (median)” value in the assay on JVM2 (MCL) is listed as 0.24; in the assay on MEC1 (CLL), 0.88; with SP49 (MCL), 0.71; in the assay on TMD8 (DLBCL), 0.23.
As to `O=C(c1cc(-c2cc3c(cc2C(=O)N2Cc4ccccc4C[C@H]2CN2CCOCC2)OCO3)n2c1CCCC2)N(c1ccccc1)c1ccc(O)cc1` [Compound S55746, (S)—N-(4-hydroxyphenyl)-3-(6-(3-(morpholinomethyl)-1,2,3,4-tetrahydroisoquinoline-2-carbonyl)benzo[d][1,3]dioxol-5-yl)-N-phenyl-5,6,7,8-tetrahydroindolizine-1-carboxamide], the results for the “CI value (median)” value in the assay with JVM2 (MCL), in the assay with MEC1 (CLL) and in the assay on TMD8 (DLBCL) were 0.46, 0.21 and 0.4, respectively.
For `Nc1ncn([C@H]2C[C@H](O)[C@@H](CO)O2)c(=O)n1` [Decitabine, 5-aza-2′-deoxycytidine], the “inhibitory activity of DNMT relative to azacytidine” value in the assay on DNMT was 30 times.
As to `CC1(C)CCC(CN2CCN(c3ccc(C(=O)NS(=O)(=O)c4ccc(NCC5CCOCC5)c([N+](=O)[O-])c4)c(Oc4cnc5[nH]ccc5c4)c3)CC2)=C(c2ccc(Cl)cc2)C1` [Venetoclax, 4-(4-{[2-(4-Chlorophenyl)-4,4-dimethyl-1-cyclohexen-1-yl]methyl}-1-piperazinyl)-N-({3-nitro-4-[(tetrahydro-2H-pyran-4-ylmethyl)amino]phenyl}sulfonyl)-2-(1H-pyrrolo[2,3-b]pyridin-5-yloxy)benzamide], the “CI value (median)” value in the assay on Granta519 (MCL) stood at 0.81; in the assay with JVM2 (MCL) it was 0.15; in the assay with MEC1 (CLL) it was 0.05; in the assay with MJ (CTCL), 0.47.
